Values quoted from earlier work, collected in PMC5488394, “30 YEARS OF THE MINERALOCORTICOID RECEPTOR: Mineralocorticoid receptor antagonists: 60 years of research and development” (The Journal of Endocrinology, 2017).
Read-outs that look alike come from different tables or passages of the source.

Legend:
[1] = cited from earlier work; for mean half-life of spironolactone metabolite: healthy volunteers; for peak absolute plasma concentration / peak relative plasma concentration: steady state after oral 100 mg spironolactone per day
[2] = tested on: human MR; parameters: method as in Arai et al. 2015a; conditions: ref Arai et al. 2015a; read-out: IC50, block of aldosterone-induced transcriptional activation of human MR; cited from earlier work
[3] = tested on: DOCA/salt-loading rats; conditions: cited from earlier work
[4] = tested on: MR over other steroid hormone receptors; parameters: method as in Arai et al. 2015a; conditions: in vitro; ref Arai et al. 2015a; cited from earlier work
[5] = tested on: Dahl salt-sensitive hypertensive rats; parameters: method as in Arai et al. 2015b; conditions: ref Arai et al. 2015b, cited from earlier work; for cardiorenal protection: 100 mg/kg
[6] = tested on: MR; parameters: method as in Losert et al. 1985; conditions: ref Losert et al. 1985; cited from earlier work
[7] = tested on: estrogen-primed immature rabbits; parameters: method as in Hertz & Tullner 1958; conditions: Clauberg assay; ref Hertz & Tullner 1958; cited from earlier work
[8] = tested on: mineralocorticoid-dependent sodium retention; conditions: cited from earlier work
[9] = tested on: S810L MR mutant; parameters: method as in Geller et al. 2000, Amazit et al. 2015; conditions: ref Geller et al. 2000, Amazit et al. 2015; cited from earlier work
[10] = tested on: aldosterone receptor; parameters: method as in Claire et al. 1979; conditions: ref Claire et al. 1979; cited from earlier work
[11] = tested on: human plasma proteins; conditions: cited from earlier work
[12] = cited from earlier work
[13] = parameters: method as in Weinberger et al. 2002; conditions: 100 mg OD or 50 mg BID, hypertensive patients; ref Weinberger et al. 2002; cited from earlier work
[14] = ref Pitt et al. 2003, cited from earlier work
[15] = radioactively labeled, rats; ref Kolkhof & Borden 2012; cited from earlier work
[16] = parameters: method as in de Gasparo et al. 1989; conditions: fludrocortisone challenge, healthy volunteers; 50 mg vs 25 mg spironolactone; ref de Gasparo et al. 1989; cited from earlier work
[17] = tested on: aldosterone-induced cardiac necrosis; parameters: method as in Selye 1960; conditions: rats; ref Selye 1960; cited from earlier work
[18] = tested on: rats; conditions: cited from earlier work
[19] = parameters: method as in Kolkhof & Borden 2012; conditions: mice; ref Kolkhof & Borden 2012; cited from earlier work
[20] = parameters: method as in Pitt et al. 1999; conditions: low dose on top of standard of care; ref Pitt et al. 1999; cited from earlier work
[21] = tested on: dogs and monkeys; conditions: ref Lumb et al. 1978; cited from earlier work
[22] = tested on: progesterone receptor; parameters: method as in Laurent et al. 1983; conditions: estrogen-primed rabbit uterus; ref Laurent et al. 1983; cited from earlier work
[23] = cited from earlier work; remark: listed apart in the source
[24] = tested on: rat androgen receptor; parameters: method as in Laurent et al. 1983; conditions: ref Laurent et al. 1983; cited from earlier work
[25] = tested on: urinary Na+/K+ ratio; parameters: method as in Casals-Stenzel et al. 1984; conditions: rats, on average; ref Casals-Stenzel et al. 1984; cited from earlier work
[26] = tested on: rat renal cytoplasmatic MR; parameters: method as in Casals-Stenzel et al. 1984; conditions: ref Casals-Stenzel et al. 1984; cited from earlier work
[27] = parameters: method as in Liddle 1957; conditions: patient with congestive heart failure and patient with Addison's disease; ref Liddle 1957; cited from earlier work
[28] = ref Karim 1978, Garthwaite & McMahon 2004
[29] = single oral dose 50 mg, healthy subjects, ref Thosar et al. 2003

## C[C@]12CCC(=O)C=C1C=C[C@@H]1[C@@H]2CC[C@@]2(C)[C@H]1CC[C@@]21CCC(=O)O1 [canrenone]
[1]; [28]
  mean half-life of spironolactone metabolite: 16.5 h
[1]; multiple doses, ref Gardiner et al. 1989
  canrenone proportion of metabolites after spironolactone: about 23%
[1]; single dose, ref Merkus et al. 1983
  canrenone proportion of metabolites after spironolactone: about 15%
[1]; ref Gardiner et al. 1989
  peak absolute plasma concentration: 181 ng/mL
  peak relative plasma concentration: 23.3%

## Cc1c(C(=O)Nc2ccc(S(C)(=O)=O)cc2)cn(CCO)c1-c1ccccc1C(F)(F)F [esaxerenone, (5S)-1-(2-hydroxyethyl)-4-methyl-N-[4-(methylsulfonyl)phenyl]-5-[2-(trifluoromethyl)phenyl]-1H-pyrrole-3-carboxamide]
[2]
  IC50: 3.7 nM
[3]; DOCA/salt-loading rats, ref Arai et al. 2015a
  antihypertensive activity vs spironolactone or eplerenone: more pronounced antihypertensive activity
[3]; ref Arai et al. 2016
  effect on hypertension and renal injury in DOCA rats: not only prevented but also ameliorated
[4]
  selectivity for MR over other steroid hormone receptors: ≥ 1000 fold
[5]; chronic treatment, 0.5 mg/kg equivalent to spironolactone or eplerenone 100 mg/kg
  antihypertensive effect: dose-dependent antihypertensive effect
[5]
  reduction of proteinuria and renal hypertrophy, potency vs spironolactone and eplerenone: superior potency

## C[C@]12CCC(=O)C=C1[C@@H]1C[C@@H]1[C@H]1[C@@H]3[C@@H]4C[C@@H]4[C@@]4(CCC(=O)O4)[C@@]3(C)CC[C@@H]12 [drospirenone, 1,2-dihydro-spirorenone]
[6]
  potency relative to spironolactone on the MR in rats: eight times more potent

## CS[C@@H]1CC2=CC(=O)CC[C@]2(C)[C@H]2CC[C@@]3(C)[C@@H](CC[C@@]34CCC(=O)O4)[C@H]12 [TMS, 7α-thiomethyl-spironolactone]
[1]; [28]
  mean half-life of spironolactone metabolite: 13.8 h
[1]; ref Gardiner et al. 1989
  peak absolute plasma concentration: 391 ng/mL
  peak relative plasma concentration: 50.3%

## C[C@]12CC[C@H]3[C@@H](CCC4=CC(=O)CC[C@@H]43)[C@@H]1CC[C@@]21CCC(=O)O1 [SC-8109]
[7]
  in vivo progestational activity: substantial in vivo progestational activity
[8]; adrenalectomized rats, ref Kagawa et al. 1957
  potency on mineralocorticoid-dependent sodium retention relative to SC-5233: more potent than SC-5233

## CC(=O)[C@H]1CC[C@H]2[C@@H]3CCC4=CC(=O)CC[C@]4(C)[C@H]3CC[C@]12C [Progesterone]
[9]
  effect on S810L MR mutant: paradoxically activate

## C[C@]12CCC(=O)C=C1[C@@H]1C[C@@H]1[C@@H]1[C@@H]2CC[C@@]2(C)[C@H]1CC[C@@]21CCC(=O)O1 [prorenone]
[10]
  effect on nuclear translocation of the aldosterone receptor: blocks nuclear translocation

## COC(=O)[C@@H]1CC2=CC(=O)CC[C@]2(C)[C@@]23O[C@@H]2C[C@@]2(C)[C@@H](CC[C@@]24CCC(=O)O4)[C@H]13 [eplerenone, 9-11α-epoxymexrenone]
[11]; ref Inspra Prescribing Information 2002
  bound fraction (plasma proteins): about 50%
[2]
  IC50: 970 nM
[12]; ref Kolkhof & Borden 2012
  active metabolites: no active metabolites
[12]; [29]
  duration of natriuretic effect: ~ 10 h
  half-life: 2.9 h
[12]; steady state after multiple doses of 100 mg, ref Cook et al. 2003
  half-life: 4 h
[13]
  efficacy compared to 50 mg spironolactone twice daily: 50–75%
[14]; P = 0.002
  incidence of serious hyperkalemia (≥6 mmol/L) vs placebo: significantly higher
[14]; vs placebo, mean follow-up 16 months
  primary endpoint, death from any cause or hospitalization for CV events: significantly reduced
[15]
  accumulation of drug equivalent concentration in kidneys compared with heart tissue: ≥ 3 fold
[16]
  natriuretic activity vs spironolactone: rough equi-efficacy
[9]
  effect on S810L MR mutant: paradoxically activate
[5]
  cardiorenal protection: only partial cardiorenal protection

## CC(=O)S[C@@H]1CC2=CC(=O)CC[C@]2(C)[C@H]2CC[C@@]3(C)[C@@H](CC[C@@]34CCC(=O)O4)[C@H]12 [spironolactone, 7α-acetylthio-17α-hydroxy-3-oxopregn-4-ene-21-carboxylic acid γ-lactone]
[1]; [28]
  plasma half-life: less than 2 h
[1]; ref Gardiner et al. 1989
  peak absolute plasma concentration: […]
[11]; ref Chien et al. 1976
  bound to human plasma proteins: 94%
[2]
  IC50: […]
[17]
  protection from aldosterone-induced cardiac necrosis: protected
[18]; 10, 30 and 100 mg/kg/day, ref Aldactone NDA 2008
  tumor finding, 104-week rat study: significant increases in hepatocellular adenomas and benign testicular and thyroid adenomas
[18]; male rats, 500 mg/kg, 78 weeks, ref Mayer et al. 1988
  tumor finding, 78-week rat study: increased numbers of benign testicular adenomas
[18]; rat, in vivo
  finding in chronic toxicity studies in rats: tumorigenic
[19]
  whole radioactivity in cardiac tissue: below the detection limit
[20]
  mortality in severe heart failure: mortality reduction
[21]
  tumorigenic or carcinogenic potential in chronic dog and monkey studies: no tumorigenic or carcinogenic potential
[9]
  effect on S810L MR mutant: paradoxically activate
[5]
  cardiorenal protection: only partial cardiorenal protection

## CS[C@H]1[C@@H]2[C@H](CC[C@@]3(C)[C@H]2CC[C@@]32CCC(=O)O2)[C@@]2(C)CCC(=O)C=C2[C@@H]1O [HTMS, 6β-hydroxy-7α-thiomethyl-spironolactone]
[1]; [28]
  mean half-life of spironolactone metabolite: 15.0 h
[1]; ref Gardiner et al. 1989
  peak absolute plasma concentration: 125 ng/mL
  peak relative plasma concentration: 16.1%

## C[C@]12C=CC(=O)C=C1[C@@H]1C[C@@H]1[C@H]1[C@@H]3[C@@H]4C[C@@H]4[C@@]4(CCC(=O)O4)[C@@]3(C)CC[C@@H]12 [spirorenone]
[22]
  affinity for the progesterone receptor vs spironolactone: higher affinity
[23]; single dose, healthy individuals, ref Seifert et al. 1982
  potency relative to spironolactone, urinary sodium excretion: at least 4 times
[24]
  affinity for the rat androgen receptor: practically no affinity
[25]
  in vivo activity on urinary Na+/K+ ratio relative to spironolactone: 8.6 times
[26]
  affinity for rat renal cytoplasmatic MR relative to spironolactone: 0.73 times

## CC(=O)S[C@@H]1CC2=CC(=O)C=C[C@]2(C)[C@H]2CC[C@@]3(C)[C@@H]([C@@H]4C[C@@H]4[C@@]34CCC(=O)O4)[C@H]12 [mespirenone, 15β,16β-methylene-spironolactone]
[23]; healthy volunteers, ref Losert et al. 1986
  natriuretic potency relative to spironolactone: 6 fold

## C[C@]12CCC(=O)C=C1CC[C@@H]1[C@@H]2CC[C@@]2(C)[C@H]1CC[C@@]21CCC(=O)O1 [SC-5233, 3-(3-oxo-17β-hydroxy-4-androsten-17α-yl)propionic acid γ-lactone]
[7]
  in vivo progestational activity: substantial in vivo progestational activity
[27]
  natriuretic activity in patients: natriuretic activity
[8]; strictly dependent on presence of a mineralocorticoid, ref Kagawa et al. 1959
  antagonistic efficacy in mineralocorticoid-dependent models: convincing antagonistic efficacy
